{"source": "patent US8367659B2", "about": "“Oxazinyl isoflavonoid compounds, medicaments and use” (Marshall Edwards, Inc., priority 2007, dated 2013)", "key": {"[1]": {"test_system": "TXA2 synthesis in RA stimulated U937 cells", "assay": "TXA2 synthesis in RA-stimulated U937 cells", "format": "cell-based, human", "details": "for TXA2 / TXA2 (pg): A23187; for TXA2 (pg): test compound 100 μM", "description": "U937 cells were thawed and resuspended in RPM1 and 10% FCS at 2×10^5 cells per ml. The cells were incubated in 5% CO2 at 37° C. and expanded in growing culture to at least 6.4×10^7 total cells. The cells were then resuspended in fresh medium and cultured with […] (RA) at 2×10^5 cells per ml for a further 3 days (72 h). RA treated cells were washed 2× in serum-free RPM and resuspended in serum-free medium at 5×10^6 cells per ml. The cells were aliquotted into Teflon tubes at 1 ml per tube. Working stock solutions of each test compound were prepared at 0.1 mM, 1 mM and 10 mM as described above. For each test compound at each working dilution, 10 μl was added to 1 ml cells to achieve a final concentration of 0 (DMSO alone), 1, 10, and 100 μM for each test compound. Cells were incubated in triplicate with each concentration of test compound for 15 min at 37° C. After 15 min pre-incubation, each 1 ml tube of cells received 5 μl of a […] solution of the calcium ionophore A23187 (to achieve 0.5 μM A23187). Incubation at 37° C. was continued for a further 30 min. After incubation, supernatants were collected by centrifugation at 2000 rpm for 10 min and stored at −20° C. until required for assay."}, "MDA-MB-468": {"test_system": "MDA-MB-468", "assay": "Anti-cancer activity, MDA-MB-468 breast cancer cells (MTT)", "format": "cell-based", "details": "Homo sapiens, MDA-MB-468, 120 h, 5 days"}, "MM200": {"test_system": "MM200", "assay": "Anti-cancer activity, MM200 melanoma cells (MTT)", "format": "cell-based", "details": "120 h; 5 days, MTT"}, "HPAC": {"test_system": "HPAC", "assay": "Anti-cancer activity, HPAC pancreatic cancer cells (MTT)", "format": "cell-based", "details": "Homo sapiens, 120 h, 5 days"}, "cancer cell lines": {"test_system": "cancer cell lines", "assay": "Anti-cancer activity, cancer cell lines tested as a group (MTT)", "format": "cell-based", "details": "read-out: IC50 against all cancer cell lines tested"}, "A10 smooth muscle cells": {"test_system": "A10 smooth muscle cells", "assay": "Proliferation of A10 smooth muscle cells from the media of rat aorta", "format": "cell-based", "details": "A10, 72 h, three days, read-out: IC50, inhibition of proliferation in A10 cells", "description": "The effect of test compounds on human umbilical vein smooth muscle cells (HUVSMC), was examined. Cells, tissue explants from a neonate (HRI—passage 2), were seeded into 96 well plates at 1×10^3 cells per well, and allowed to attach for 24 hours. They were then washed twice and incubated in medium without foetal calf serum (FCS) for 24-48 hours to serum-starve them. Test compounds were prepared in medium without FCS and added to the plates and incubated for one hour. Medium with FCS was added to give a final concentration of 10% and the plates incubated for 4-5 days until the controls were just confluent.\nThe effect of test compounds on rat aortic smooth muscle cell line (A7r5) and another cell line from the media of rat aorta (A10) was examined. The methodology was the same as for HUVSMC, except that the cells were treated with compound for three days."}, "unstimulated lymphocytes": {"test_system": "unstimulated lymphocytes", "assay": "Unstimulated lymphocytes, viable cell number (MTT)", "format": "cell-based, Skh-1:HR 1 (hairless) mice", "details": "10 μM; absence of mitogenic stimulation", "description": "Male Skh-1:HR 1 (hairless) mice, approximately six weeks old were killed by cervical dislocation. Single cell suspensions were made from the spleen and erythrocytes were lysed in buffer (0.14 M NH4Cl, 17 mM Tris, pH 7.2). The remaining splenocytes were cultured in RPMI-1640 (Gibco) supplemented with 10% (v:v) FBS, 200 mM L-glutamine, penicillin/streptomycin and […] 2-mercaptoethanol. Splenocytes were added to quadruplicate wells containing either concanavalin A (ConA, Sigma-Aldrich—0.4 μg/well), LPS (Sigma-Aldrich—1 μg/well) or no mitogen, as well 10 μM of test compound in DMSO. Samples were analysed after 3 days incubation at 37° C. in 5% CO2 in air. Methylthiazoletetrazolium (MTT) is bioreduced by viable cells into a coloured formazan product that is soluble in DMSO. Thus the quantity of formazan product is directly proportional to the number of living cells in culture, and can be measured using a spectrophotometer at 570 nm. MTT was added to each well, incubated for a further 4 hrs and then colour developed with 0.04 N HCl in isopropanol. Culture supernatants were stored after collection at −80° C. and analysed by ELISA (BD Biosciences) for IFN-γ (a Th-1 cytokine) and for T cells alone, IL-6 (a Th-2 cytokine)."}, "[2]": {"assay": "Free radical scavenging with DPPH", "details": "for EC50: DPPH, read-out: Free radical scavenging ability EC50", "outline": "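Compounds reacted with DPPH in ethanol for 20 min, screened at 100 μM, and absorbance at 517 nm compared with a DPPH-ethanol blank. IC50 was taken as the concentration giving a 0.6 absorbance change, with 1.2 units representing total scavenging.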"}}, "note": "“Also recorded” adds a separate entry of the source. Read-outs that look alike come from different tables or passages of the source. Marks after values point to notes of the source that are not given here.", "data": [{"smiles": "Oc1ccc(C2=Cc3cc4c(cc3OC2)OCN(Cc2ccccc2)C4)cc1", "note": "[Compound 1, 4-(3-Benzyl-2,3,4,8-tetrahydrochromeno[6,7-e][1,3]oxazin-7-yl)phenol]", "values": [{"measurement": "TXA2", "setting": "[1]; test compound 1 μM", "value": "48.720 ± 2.927", "unit": "pg"}, {"measurement": "TXA2", "setting": "[1]; test compound 10 μM", "value": "17.421 ± 5.747", "unit": "pg"}, {"measurement": "TXA2 (pg)", "setting": "[1]", "value": "6.397 ± 0.557^a pg"}, {"measurement": "IC50", "setting": "MDA-MB-468", "value": "5.25 ± 2.1", "unit": "µM"}, {"measurement": "IC50", "setting": "MM200", "value": "6.1 ± 1.6", "unit": "µM"}, {"measurement": "IC50", "setting": "HPAC", "value": "18.2 ± 8.1", "unit": "µM"}, {"measurement": "IC50", "setting": "cancer cell lines", "value": "5 to 20", "unit": "µM"}, {"measurement": "IC50", "setting": "A10 smooth muscle cells", "value": 11, "unit": "µM"}, {"measurement": "reduction of viable cell numbers", "setting": "unstimulated lymphocytes", "value": "approximately 50%"}]}, {"smiles": "CC(c1ccccc1)N1COc2cc3c(cc2C1)C=C(c1ccc(O)cc1)CO3", "note": "(stereo not shown) [Compound 2, 4-(3-(1-Phenylethyl)-2,3,4,8-tetrahydrochromeno[6,7-e][1,3]oxazin-7-yl)phenol]", "values": [{"measurement": "effect on TXA2 synthesis", "setting": "[1]; 100 μM", "value": "inhibit TXA2 synthesis"}, {"measurement": "TXA2", "setting": "[1]; test compound 1 μM", "value": "30.680 ± 2.708", "unit": "pg"}, {"measurement": "TXA2", "setting": "[1]; test compound 10 μM", "value": "21.298 ± 0.914", "unit": "pg"}, {"measurement": "TXA2 (pg)", "setting": "[1]", "value": "2.313 ± 0.113^a pg"}, {"measurement": "IC50", "setting": "MDA-MB-468", "value": "4.87 ± 2.6", "unit": "µM"}, {"measurement": "IC50", "setting": "MM200", "value": "4.76 ± 1.3", "unit": "µM"}, {"measurement": "EC50", "setting": "[2]; 20 minutes, absorbance 517 nm, Table 4", "value": 21.4, "unit": "µM"}, {"measurement": "IC50", "setting": "HPAC", "value": "18.3 ± 11", "unit": "µM"}, {"measurement": "IC50", "setting": "cancer cell lines", "value": "5 to 20", "unit": "µM"}, {"measurement": "reduction of viable cell numbers", "setting": "unstimulated lymphocytes", "value": "approximately 50%"}]}, {"smiles": "Oc1cccc(C2=Cc3ccc(O)cc3OC2)c1", "note": "[Compound 37-DHE, 3′,7-dihydroxy-isoflav-3-ene, reference compound]", "values": [{"measurement": "free radical scavenging / antioxidant activity in DPPH screen", "setting": "[2]; 100 μM, ΔAbs>0.3 criterion", "value": "free radical scavenging activity; also recorded: potent free radical scavenging ability"}, {"measurement": "EC50", "setting": "[2]; comparative, Table 13", "value": 55, "unit": "µM"}, {"measurement": "IC50", "setting": "A10 smooth muscle cells", "value": 31, "unit": "µM"}]}]}
